Here are results for 4 molecules from PMC5449183, “Helical jackknives control the gates of the double-pore K^+ uptake system KtrAB” (eLife, 2017).

For data set [1], the target named is T1, KtrA (RCK subunit of the KtrAB complex) (Vibrio alginolyticus, UniProt O87952). Nature of the data set: ITC on detergent-solubilized KtrAB; […] Å cryo-EM map in the presence of ADP (EMD-3450); pulsed EPR. Format: binding. Also noted: full-length KtrAB, His10-KtrAB, detergent-solubilized complex (octameric KtrA ring); with KtrB.
Data set [2] deals with T1, KtrA (RCK subunit of the KtrAB complex). Nature of the data set: biochemical.
Data set [3] deals with KtrB from Vibrio alginolyticus (untagged, of the His10-KtrAB complex) (Vibrio alginolyticus) (UniProt O87953). Nature of the data set: cryo-EM structure; His10-KtrAB 5 mg/ml, detergent-solubilised (1.5 mM Cymal-6), 600 uM ADP, 70 mM NaCl, 30 mM KCl, 20 mM Tris-HCl pH 8.0; 20,500 particles, D2 symmetry, 6.6 A; model by flexible fitting of a homology model.
Data set [4] deals with the molecule itself. The data set is described as above.

T1 sequence (O87953 whole entry, one chain of several, further chain): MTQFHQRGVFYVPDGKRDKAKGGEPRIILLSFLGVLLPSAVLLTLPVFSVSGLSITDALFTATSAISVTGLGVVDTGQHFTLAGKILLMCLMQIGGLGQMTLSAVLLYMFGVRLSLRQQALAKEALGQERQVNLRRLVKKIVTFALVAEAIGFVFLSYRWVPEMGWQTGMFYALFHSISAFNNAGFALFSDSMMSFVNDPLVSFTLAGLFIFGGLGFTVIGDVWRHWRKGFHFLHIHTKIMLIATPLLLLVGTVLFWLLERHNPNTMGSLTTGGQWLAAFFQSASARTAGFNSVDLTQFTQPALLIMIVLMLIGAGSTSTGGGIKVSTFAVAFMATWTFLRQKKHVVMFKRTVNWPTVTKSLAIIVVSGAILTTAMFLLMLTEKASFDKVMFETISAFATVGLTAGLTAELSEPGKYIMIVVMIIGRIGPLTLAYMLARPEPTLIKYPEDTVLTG

For the molecule `Nc1ncnc2c1ncn2[C@@H]1O[C@H](COP(=O)(O)OP(=O)(O)O)[C@@H](O)[C@H]1O` [ADP], the dissociation constant Kd (usually a measure of binding affinity in units of concentration) in data set [1] is 3000 nM.

In data set [2], `Nc1ncnc2c1ncn2[C@@H]1O[C@H](COP(=O)(O)OP(=O)(O)OP(=O)(O)O)[C@@H](O)[C@H]1O` [ATP] showed a Kd of 2000 nM.

Turning to “KtrB from Vibrio alginolyticus (untagged, of the His10-KtrAB complex) (from UniProt O87953 1-455) (natural protein)”, the stoichiometry N (as a rule, a count of units in the complex or per binding partner) in data set [3] turned out to be 2.

B1: KtrA from Vibrio alginolyticus (His10-KtrA of the His10-KtrAB complex) (natural protein, UniProt O87952 1-220, looked up)
chain: MKTGDKQFAVIGLGRFGLAVCKELQDSGSQVLAVDINEDRVKEAAGFVSQAIVANCTHEETVAELKLDDYDMVMIAIGADVNASILATLIAKEAGVKSVWVKANDRFQARVLQKIGADHIIMPERDMGIRVARKMLDKRVLEFHPLGSGLAMTEFVVGSRLMGKTLSDLALCKVEGVQVLGYKRGPEIIKAPDMSTTLEIGDLIIVVGPQDKLANKLKSL
notes: KtrA, cytoplasmic RCK subunit of the K+ uptake system KtrAB, Vibrio alginolyticus; gene amplified from genomic DNA; Forms an octameric ring (eight chains) in the complex KtrB2A8B2; The N-terminal end of the tag is read from the label His10-KtrAB; ADP (600 uM) was present in the cryo-EM sample; also called VaKtrA; RCK subunit; source: E. coli LB2003, co-expressed with KtrB from pBAD18 …
Consider B1, for which the “stoichiometry N” value in data set [4] amounted to 8.
